Columns and labels:
Enterobacter cloacae = test: MIC assay; assay type: cell-based; conditions: Enterobacter cloacae
Ser. marcescens = test: Minimal bactericidal concentration (MBC) assay; assay type: cell-based, Serratia marcescens
Procedure: (§1) Minimal bactericidal concentration (MBC) assay—Overnight-grown MIC plates, prepared as described in Example 16, were evaluated to determine the MIC. Culture was then sampled from wells at and near the MIC using sterile inoculating loops, and transferred to fresh MHA plates to determine if viable bacteria remained. […] The MBC was determined as the well in the MIC plate which contained the lowest concentration of silver yielding no bacterial growth on the MHA plate.

Prot. mirabilis = test: Minimal bactericidal concentration (MBC) assay; assay type: cell-based, Proteus mirabilis; conditions: Prot. mirabilis isolate NP405
Procedure: as §1

Ps. aeruginosa = test: Minimal bactericidal concentration (MBC) assay; assay type: cell-based, Pseudomonas aeruginosa
Procedure: as §1

E. coli = test: Minimal bactericidal concentration (MBC) assay; assay type: cell-based, Escherichia coli
Procedure: as §1

Streptococcus pneumoniae = test: MIC assay; assay type: cell-based; conditions: solutions in 0.1 M lactate buffer pH 4.0
K. pneumoniae = test: Minimal bactericidal concentration (MBC) assay; assay type: cell-based, Klebsiella pneumoniae
Procedure: as §1

B dolosa = test: Minimal bactericidal concentration (MBC) assay; assay type: cell-based, Burkholderia dolosa
Procedure: as §1

Citrobacter freundii = test: MIC assay; assay type: cell-based; conditions: C. freundii isolate NP410
Burkholderia multivorans = test: MIC assay; assay type: cell-based
B. multivorans = test: Minimal bactericidal concentration (MBC) assay; assay type: cell-based, Burkholderia multivorans
Procedure: as §1

[1] = test system: Staphylococcus epidermidis; test: MIC assay; assay type: cell-based
Streptococcus pyogenes = test: MIC assay; assay type: cell-based
Klebsiella pneumoniae = test: MIC assay; assay type: cell-based
Escherichia coli = test: MIC assay; assay type: cell-based
Staphylococcus aureus = test: MIC assay; assay type: cell-based; conditions: for NP101 MIC: Staph aureus isolate NP101; for NP102 MIC: Staph aureus isolate NP102; for NP103 MIC: Staph aureus isolate NP103
Strep. pyogenes = test: Minimal bactericidal concentration (MBC) assay; assay type: cell-based, Streptococcus pyogenes
Procedure: as §1

C. freundii = test: Minimal bactericidal concentration (MBC) assay; assay type: cell-based, Citrobacter freundii; conditions: C. freundii isolate NP410
Procedure: as §1

Staph epidermidis = test: Minimal bactericidal concentration (MBC) assay; assay type: cell-based, Staphylococcus epidermidis
Procedure: as §1

Proteus mirabilis = test: MIC assay; assay type: cell-based; conditions: Prot. mirabilis isolate NP405
Pseudomonas aeruginosa = test: MIC assay; assay type: cell-based; conditions: for NP212 MIC: P. aeruginosa isolate NP212; for NP213 MIC: P. aeruginosa isolate NP213; for NP214 MIC: P. aeruginosa isolate NP 214
Burkholderia dolosa = test: MIC assay; assay type: cell-based
Staph. aureus = test: Minimal bactericidal concentration (MBC) assay; assay type: cell-based, Staphylococcus aureus
Procedure: as §1

[2] = Ps. aeruginosa ATCC type strain 27317
[3] = K. pneumoniae isolate NP403 (first listing)
[4] = K. pneumoniae isolate NP403 (second listing)
[5] = Staph epidermidis ATCC type strain 12228
[6] = Staph epidermidis isolate NP136
[7] = formulation type Water/Lecithin
[8] = Staph. aureus ATCC type strain 6538
[9] = Staph. aureus ATCC type strain 700699

O=[N+]([O-])[O-].[Ag+] [AgNO3, silver nitrate]
MIC (Enterobacter cloacae; aerobic conditions (+)): 13 µg/mL | MIC (Enterobacter cloacae; anaerobic conditions (Aerobic −)): 25 µg/mL | MBC (Ser. marcescens; Ser. marcescens isolate NP402 (first listing)): 6 parts silver per million | MBC (Ser. marcescens; Ser. marcescens isolate NP402 (second listing)): 6 parts silver per million | MBC (Ser. marcescens; Ser. marcescens isolate NP408 (first listing)): 6 parts silver per million | MBC (Ser. marcescens; Ser. marcescens isolate NP408 (second listing)): 11 parts silver per million | MBC (Prot. mirabilis): 13 parts silver per million | MBC (Ps. aeruginosa; [2]): 3 parts silver per million | MBC (Ps. aeruginosa; Ps. aeruginosa isolate NP201): 3 parts silver per million | MBC (Ps. aeruginosa; Ps. aeruginosa isolate NP204): 3 parts silver per million | MBC (Ps. aeruginosa; Ps. aeruginosa isolate NP206): 1 parts silver per million | MBC (E. coli; E. coli ATCC type strain 8739): 0.4 parts silver per million | MBC (E. coli; E. coli ATCC type strain 43745): 0.4 parts silver per million | MBC (E. coli; E. coli isolate NP412): 1 parts silver per million | MIC (Streptococcus pneumoniae; S. pneumo (clin 314)): 11 µg/mL | MIC (Streptococcus pneumoniae; S. pneumo (clin 315)): 21 µg/mL | MBC (K. pneumoniae; K. pneumoniae isolate NP401): 3 parts silver per million | MBC (K. pneumoniae; [3]): 6 parts silver per million | MBC (K. pneumoniae; [4]): 3 parts silver per million | MBC (K. pneumoniae; K. pneumoniae isolate NP406): 1 parts silver per million | MBC (B dolosa; B dolosa isolate A3): 3 parts silver per million | MBC (B dolosa; B dolosa isolate A4): 2 parts silver per million | MIC (Citrobacter freundii): 3 parts silver per million | MIC (Burkholderia multivorans; B. multivorans isolate B1): 3 parts silver per million | MIC (Burkholderia multivorans; B. multivorans isolate B2): 3 parts silver per million | MIC (Burkholderia multivorans; B. multivorans isolate B4): 2 parts silver per million | MBC (B. multivorans; B. multivorans isolate B1): 3 parts silver per million | MBC (B. multivorans; B. multivorans isolate B2): 3 parts silver per million | MBC (B. multivorans; B. multivorans isolate B4): 3 parts silver per million | MIC ([1]; S. epiderm (ATCC), solutions in 0.1 M lactate buffer pH 4.0): 3 µg/mL | MIC [1, 5]: 3 parts silver per million | MIC [1, 6]: 3 parts silver per million | MIC (Streptococcus pyogenes; S. pyog (clin. 303), solutions in 0.1 M lactate buffer pH 4.0): 3 µg/mL | MIC (Streptococcus pyogenes; S. pyog (clin. 304), solutions in 0.1 M lactate buffer pH 4.0): 5 µg/mL | MIC (Streptococcus pyogenes; Strep. pyogenes isolate NP303): 3 parts silver per million | MIC (Streptococcus pyogenes; Strep. pyogenes isolate NP304): 6 parts silver per million | MIC (Streptococcus pyogenes; Strep. pyogenes isolate NP306): 6 parts silver per million | MIC (Klebsiella pneumoniae; K. pneumoniae isolate NP401): 3 parts silver per million | MIC (Klebsiella pneumoniae; [3]): 6 parts silver per million | MIC (Klebsiella pneumoniae; [4]): 6 parts silver per million | MIC (Klebsiella pneumoniae; K. pneumoniae isolate NP406): 1 parts silver per million | MIC (Klebsiella pneumoniae; Klebsiella pneumoniae, aerobic conditions (+)): 3 µg/mL | MIC (Klebsiella pneumoniae; Klebsiella pneumoniae, anaerobic conditions (Aerobic −)): 3 µg/mL | MIC (Escherichia coli; E. coli (ATCC), solutions in 0.1 M lactate buffer pH 4.0): 3 µg/mL | MIC (Escherichia coli; E. coli ATCC type strain 8739): 0.4 parts silver per million | MIC (Escherichia coli; E. coli ATCC type strain 43745): 1 parts silver per million | MIC (Escherichia coli; E. coli isolate NP412): 1 parts silver per million | MIC (Staphylococcus aureus; S. aureus (ATCC), solutions in 0.1 M lactate buffer pH 4.0): 11 µg/mL | MIC (Staphylococcus aureus; S. aureus (clin.), solutions in 0.1 M lactate buffer pH 4.0): 5 µg/mL | NP101 MIC (Staphylococcus aureus; formulation type Lactate): 9 ppm | NP101 MIC (Staphylococcus aureus; [7]): 11 ppm | NP101 MIC (Staphylococcus aureus; formulation type Water/PVA): 11 ppm | NP102 MIC (Staphylococcus aureus; formulation type Lactate): 9 ppm | NP102 MIC (Staphylococcus aureus; [7]): 11 ppm | NP102 MIC (Staphylococcus aureus; formulation type Water/PVA): 11 ppm | NP103 MIC (Staphylococcus aureus; formulation type Lactate): 9 ppm | NP103 MIC (Staphylococcus aureus; [7]): 11 ppm | NP103 MIC (Staphylococcus aureus; formulation type Water/PVA): 11 ppm | MIC (Staphylococcus aureus; [8]): 6 parts silver per million | MIC (Staphylococcus aureus; [9]): 3 parts silver per million | MIC (Staphylococcus aureus; Staph. aureus isolate NP101): 6 parts silver per million | MIC (Staphylococcus aureus; Staph. aureus isolate NP102): 6 parts silver per million | MIC (Staphylococcus aureus; Staph. aureus isolate NP103): 6 parts silver per million | MBC (Strep. pyogenes; Strep. pyogenes isolate NP303): 10 parts silver per million | MBC (Strep. pyogenes; Strep. pyogenes isolate NP304): 21 parts silver per million | MBC (Strep. pyogenes; Strep. pyogenes isolate NP306): 21 parts silver per million | MBC (C. freundii): 3 parts silver per million | MBC (Staph epidermidis; [5]): 3 parts silver per million | MBC (Staph epidermidis; [6]): 3 parts silver per million | MIC (Proteus mirabilis): 6 parts silver per million | MIC (Pseudomonas aeruginosa; P. aerug (ATCC), solutions in 0.1 M lactate buffer pH 4.0): 3 µg/mL | MIC (Pseudomonas aeruginosa; P. aerug. (clin.), solutions in 0.1 M lactate buffer pH 4.0): 3 µg/mL | NP212 MIC (Pseudomonas aeruginosa; formulation type Lactate): 2 ppm | NP212 MIC (Pseudomonas aeruginosa; [7]): 3 ppm | NP212 MIC (Pseudomonas aeruginosa; formulation type Water/PVA): 3 ppm | NP213 MIC (Pseudomonas aeruginosa; formulation type Lactate): 1 ppm | NP213 MIC (Pseudomonas aeruginosa; [7]): 1 ppm | NP213 MIC (Pseudomonas aeruginosa; formulation type Water/PVA): 1 ppm | NP214 MIC (Pseudomonas aeruginosa; formulation type Lactate): 1 ppm | NP214 MIC (Pseudomonas aeruginosa; [7]): 1 ppm | NP214 MIC (Pseudomonas aeruginosa; formulation type Water/PVA): 3 ppm | MIC (Pseudomonas aeruginosa; Ps. aeruginosa ATCC type strain 9027): 1 parts silver per million | MIC (Pseudomonas aeruginosa; [2]): 2 parts silver per million | MIC (Pseudomonas aeruginosa; Ps. aeruginosa isolate NP201): 1 parts silver per million | MIC (Pseudomonas aeruginosa; Ps. aeruginosa isolate NP204): 1 parts silver per million | MIC (Pseudomonas aeruginosa; Ps. aeruginosa isolate NP206): 1 parts silver per million | MIC (Burkholderia dolosa; B dolosa isolate A3): 2 parts silver per million | MIC (Burkholderia dolosa; B dolosa isolate A4): 2 parts silver per million | MBC (Staph. aureus; [8]): 6 parts silver per million | MBC (Staph. aureus; [9]): 6 parts silver per million | MBC (Staph. aureus; Staph. aureus isolate NP101): 11 parts silver per million | MBC (Staph. aureus; Staph. aureus isolate NP102): 6 parts silver per million | MBC (Staph. aureus; Staph. aureus isolate NP103): 6 parts silver per million

From patent US20080050452A1, “METAL-CONTAINING FORMULATIONS AND METHODS OF USE” (priority 2006, published 2008)
